In patent US11849726B2, “Microbicidal composition” (Lanxess Corporation, priority 2016, dated 2023):

Legend:
Assay type in all cases: cell-based
[1] = tested on: Aspergillus brasiliensis ATCC #16404; assay: MIC / synergy index test in 96 well microtiter plates, mold; conditions: A. brasiliensis ATCC #16404, contact time 3 days, potato dextrose broth
Experimental: (§1) Phenoxyethanol and Dipropylene glycol phenyl ether were evaluated for synergy by determining the synergy index (S.I.) of the combination. Synergy index was calculated based on minimum inhibitory concentrations (MIC) of two antimicrobial compounds (A and B) alone and in combinations. The MIC test were run in accordance with the method described in U.S. Pat. No. 9,034,905. The tests organisms were Gram negative bacteria (Pseudomonas aeruginosa ATCC #15442), Gram positive bacteria (Staphylococcus aureus ATCC #6538), and yeast (Candida albicans ATCC #10231) and mold (Aspergillus brasiliensis ATCC #16404). Contact time for the bacteria was 24 and 48 hours, yeast was 48 and 72 hrs, and 3 and 7 days for mold. The test was carried out in 96 well microtiter plates.
(§2) SI is calculated as follows: Ca/CA+Cb/CB=Synergy Index (“SI”) Wherein: • CA=concentration of compound A in ppm, acting alone, which produced an end point (MIC of Compound A). • Ca=concentration of compound A in ppm, in the mixture, which produced an end point. • CB=concentration of compound B in ppm, acting alone, which produced an end point (MIC of Compound B). • Cb=concentration of compound B in ppm, in the mixture, which produced an end point.
(§3) When the sum of Ca/CA and Cb/CB is greater than one, antagonism is indicated.

[2] = tested on: Candida albicans ATCC #10231; assay: MIC / synergy index test in 96 well microtiter plates, yeast; conditions: C. albicans ATCC #10231, contact time 24 hrs, potato dextrose broth
Experimental: as §1, with “Contact time for the bacteria was 24 and 48 hours, yeast was 48 and 72 hrs, and 3 and 7 days for mold.” left out
as §2, §3

[3] = tested on: Staphylococcus aureus ATCC #6538; assay: MIC / synergy index test in 96 well microtiter plates, Gram positive bacteria; conditions: S. aureus ATCC #6538, contact time 24 hrs, 10% tryptic soy broth
Experimental: as §1, §2, §3

SMILES | MIC of compound acting alone (CA / CB) [1] | MIC of compound acting alone (CA / CB) [2] | MIC of compound acting alone (CA / CB) [3]
CC(CO)OCC(C)Oc1ccccc1 (stereo not drawn) [Dipropylene glycol phenyl ether] | 10000 ppm AI | 19992 ppm AI | 19992 ppm AI
OCCOc1ccccc1 [Phenoxyethanol, 2-phenoxy-1-ethanol] | 3000 ppm AI | 5000 ppm AI | 5000 ppm AI
